Series [1] can be described thus: Drug uptake in human MCF7 cells at 1 uM measured after 24 hrs in presence of 100 uM photoCORM delivered CO by LC-MS/MS-MRM analysis. The following applies: mcf7, 24 h. It counts as ADME, cell-based.
Series [2] deals with MDA-MB-231. As to the kind of experiment: Cytotoxicity against human MDA-MB-231 cells assessed as reduction in cell viability at < 0.5 uM incubated for 24 hrs in presence of 20 uM chloramphenicol by MTT assay. As to conditions: dose microM <0.5, time 24.0 hrs. It is filed as functional, cell-based. In general terms: Tetrazolium assays rely on reduction of a dye to a coloured formazan, in cell work by metabolically active cells.

The subject of series [3] is MCF7. As to the kind of experiment: Effect on BCRP expression in human MCF7 cells at 0.5 to 1 uM incubated for 24 hrs by western blot analysis. It counts as functional, cell-based. The following applies: dose 0.5-1 µM. (In general: Immunoblotting shows a protein as a band on a membrane.)
Series [4] is described as follows: Drug uptake in human MCF7 cells at 0.2 to 1 uM measured after 24 hrs by HPLC-MS/MS-MRM analysis. As to conditions: mcf7, 24 h, dose 0.2-1 µM. It counts as ADME, cell-based.
Series [5] deals with MDA-MB-231. Description: Cytotoxicity against human MDA-MB-231 cells assessed as reduction in cell viability incubated for 24 hrs in presence of chloramphenicol by MTT assay. It is filed as functional, cell-based.
Series [6] is described as follows: Drug uptake in human MCF7 cells at 1 uM measured after 24 hrs in presence of 50 to 100 uM photoCORM delivered CO by LC-MS/MS-MRM analysis. The following applies: mcf7, 24 h. It counts as ADME, cell-based.
Series [7] is described as follows: Drug uptake in human MCF7 cells at 1 uM measured after 24 hrs in presence of 20 uM chloramphenicol by LC-MS/MS-MRM analysis. It counts as ADME, cell-based. As to conditions: mcf7, 24 h.
Series [8] is described as follows: Drug uptake in human HepG2 cells at 1 to 2 uM measured after 24 hrs in presence of photoCORM delivered CO by LC-MS/MS-MRM analysis. It counts as ADME, cell-based. The following applies: hepg2, 24 h, dose 1-2 µM.
Series [9] in a line: Drug metabolism in human MDA-MB-231 cells assessed as intracellular hydroxy-PTX metabolite formation measured after 24 hrs by LC-MS/MS-MRM analysis. It counts as ADME, cell-based. As to conditions: mda-mb-231, 24 h.
Series [10] in a line: Drug metabolism in human MCF7 cells assessed as intracellular hydroxy-PTX metabolite formation at 1 uM measured after 24 hrs by LC-MS/MS-MRM analysis. It is filed as ADME, cell-based. As to conditions: mcf7, 24 h.
The subject of series [11] is MCF7. As to the kind of experiment: Effect on CYP2C8 expression in human MCF7 cells at 0.5 to 1 uM incubated for 24 hrs by western blot analysis. It is filed as functional, cell-based. As to conditions: dose 0.5-1 µM.
The nature of series [12]: Drug metabolism in human MCF7 cells assessed as intracellular hydroxy-PTX metabolite formation at 0.2 to 1 uM measured after 24 hrs by HPLC-MS/MS-MRM analysis. It counts as ADME, cell-based. As to conditions: mcf7, 24 h, dose 0.2-1 µM.
A short description of series [13]: Drug metabolism in human MCF7 cells assessed as decline in intracellular hydroxy-PTX metabolite level at 1 uM measured after 24 hrs in presence of 50 to 100 uM photoCORM delivered CO by LC-MS/MS-MRM analysis. It is filed as ADME, cell-based. As to conditions: mcf7, 24 h.
The next series relates to HepG2. Description: Cytotoxicity against human HepG2 cells assessed as reduction in cell viability incubated for 24 hrs in presence of chloramphenicol by MTT assay. It counts as functional, cell-based.

Calls of active or inactive are those of the source. The rule behind the calls is not given here.

Take `CC(=O)O[C@H]1C(=O)[C@@]2(C)[C@H]([C@H](OC(=O)c3ccccc3)[C@]3(O)C[C@H](OC(=O)[C@H](O)[C@@H](NC(=O)c4ccccc4)c4ccccc4)C(C)=C1C3(C)C)[C@]1(OC(C)=O)CO[C@@H]1C[C@@H]2O` [PACLITAXEL]: the Drug uptake entry in series [1] is given as “Not Active”; in [4] it was “Active”; in series [6] it was “Not Active”; in series [7], “Not Active”; in series [8], “Active”. In addition, the result in the series with MDA-MB-231 [2], with MDA-MB-231 [5] and with HepG2 was Active. The outcome in the series on MCF7 [3] and in the series with MCF7 [11] was inactive. Also, the Drug metabolism entry in series [9] is “Metabolite_Notdetected”; in series [10] it was 1 fmol/µg; in series [12], “Metabolite_Detected”; in series [13] it was “Metabolite_Notdetected”.
